Test results taken from EP0749962B1, “6-substituted-1,2,3,4-tetrahydro-9H-carbazoles and 7-substituted-10H-cyclohepta(7,6-B)indoles” (ELI LILLY AND COMPANY, priority 1995, dated 1996).
Structures can show the parent of a compound that is named as a salt. Where two headings read alike, the source gives them in different places.

Experiments:
5-HT1E = target: T1, 5-HT1E (Homo sapiens, UniProt P28566); assay: [3H]5-HT radioligand binding to the cloned 5-HT1E receptor
T1 construct: expressed in transfected cells
T1 sequence (P28566 whole entry): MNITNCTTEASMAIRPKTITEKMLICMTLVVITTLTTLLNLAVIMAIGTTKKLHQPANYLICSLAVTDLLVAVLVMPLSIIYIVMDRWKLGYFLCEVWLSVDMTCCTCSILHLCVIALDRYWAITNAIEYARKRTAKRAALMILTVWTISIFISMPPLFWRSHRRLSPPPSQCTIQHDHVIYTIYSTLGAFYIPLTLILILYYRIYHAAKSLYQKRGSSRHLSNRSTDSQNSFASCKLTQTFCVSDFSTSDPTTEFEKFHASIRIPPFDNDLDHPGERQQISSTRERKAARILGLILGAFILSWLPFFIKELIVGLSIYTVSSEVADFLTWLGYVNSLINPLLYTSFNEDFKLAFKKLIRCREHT

[1] = system: neuronal protein extravasation; assay: Neuronal (dural) protein extravasation after electrical stimulation of the trigeminal ganglion; type: in vivo, Harlan Sprague-Dawley rats or guinea pigs; conditions: 10 minutes before trigeminal ganglion stimulation, ID50 approximated from dose-response curve, species of the table not stated (rats or guinea pigs)
Experimental: Harlan Sprague-Dawley rats (225-325 g) or guinea pigs from Charles River Laboratories (225-325 g) were anesthetized with sodium pentobarbital intraperitoneally (65 mg/kg or 45 mg/kg respectively) and placed in a stereotaxic frame (David Kopf Instruments) with the incisor bar set at -3.5 mm for rats or -4.0 mm for guinea pigs. Following a midline sagital scalp incision, two pairs of bilateral holes were drilled through the skull (6 mm posteriorly, 2.0 and 4.0 mm laterally in rats; 4 mm posteriorly and 3.2 and 5.2 mm laterally in guinea pigs, all coordinates referenced to bregma). Pairs of stainless steel stimulating electrodes (Rhodes Medical Systems, Inc.) were lowered through the holes in both hemispheres to a depth of 9 mm (rats) or 10.5 mm (guinea pigs) from dura.
The femoral vein was exposed and a dose of the test compound was injected intravenously (1 mL/kg). Approximately 7 minutes later, a 50 mg/kg dose of Evans Blue, a fluorescent dye, was also injected intravenously. The Evans Blue complexed with proteins in the blood and functioned as a marker for protein extravasation. […]
A fluorescence microscope (Zeiss) equipped with a grating monochromator and a spectrophotometer was used to quantify the amount of Evans Blue dye in each sample. An excitation wavelength of approximately 535 nm was utilized and the emission intensity at 600 nm was determined. […] This facilitated the computer-controlled movement of the stage with fluorescence measurements at 25 points (500 µm steps) on each dural sample. The mean and standard deviation of the measurements was determined by the computer.
The extravasation induced by the electrical stimulation of the trigeminal ganglion was an ipsilateral effect (i.e. occurs only on the side of the dura in which the trigeminal ganglion was stimulated). […] The ratio of the amount of extravasation in the dura from the stimulated side compared to the unstimulated side dura was calculated. […]

5-HT1Dα = target: T2, 5-HT1Dα (Homo sapiens, UniProt P28221); assay: [3H]5-HT radioligand binding to the cloned 5-HT1Dα receptor
T2 construct: expressed in transfected cells
T2 sequence (P28221 whole entry): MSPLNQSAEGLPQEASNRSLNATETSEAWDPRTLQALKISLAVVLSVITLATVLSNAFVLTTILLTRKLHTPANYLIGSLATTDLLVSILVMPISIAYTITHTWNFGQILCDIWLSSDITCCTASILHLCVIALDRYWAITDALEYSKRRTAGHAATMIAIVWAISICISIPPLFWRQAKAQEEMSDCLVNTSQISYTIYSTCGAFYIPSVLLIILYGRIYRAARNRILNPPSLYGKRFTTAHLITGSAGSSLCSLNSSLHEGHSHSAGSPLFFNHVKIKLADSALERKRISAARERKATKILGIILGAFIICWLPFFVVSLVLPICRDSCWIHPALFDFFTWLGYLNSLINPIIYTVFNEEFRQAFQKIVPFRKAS

5-HT1F receptor = target: T3, 5-HT1F receptor (Homo sapiens, UniProt P30939); assay: [3H]5-HT radioligand binding to the cloned 5-HT1F receptor (membranes of transfected Ltk- cells)
T3 construct: expressed in transfected cells; host or cells: Ltk- cells (mouse fibroblasts)
T3 sequence (P30939 1-366): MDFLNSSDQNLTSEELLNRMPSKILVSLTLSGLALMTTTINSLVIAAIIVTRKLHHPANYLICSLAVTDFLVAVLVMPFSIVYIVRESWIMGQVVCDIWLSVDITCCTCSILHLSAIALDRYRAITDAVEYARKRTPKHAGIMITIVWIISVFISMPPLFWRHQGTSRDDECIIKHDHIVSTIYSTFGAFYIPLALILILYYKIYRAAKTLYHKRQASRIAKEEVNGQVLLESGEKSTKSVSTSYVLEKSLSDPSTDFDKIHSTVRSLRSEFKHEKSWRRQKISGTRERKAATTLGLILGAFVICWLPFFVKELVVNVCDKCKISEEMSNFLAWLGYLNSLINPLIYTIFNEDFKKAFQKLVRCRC
Experimental: Membrane Preparation: Membranes were prepared from transfected Ltk- cells which were grown to 100% confluency. The cells were washed twice with phosphate-buffered saline, scraped from the culture dishes into 5 mL of ice-cold phosphate-buffered saline, and centrifuged at 200 x g for 5 minutes at 4°C. The pellet was resuspended in 2.5 mL of ice-cold Tris buffer (20 mM Tris HCl, pH=7.4 at 23°C, 5 mM EDTA) and homogenized with a Wheaton tissue grinder. The lysate was subsequently centrifuged at 200 x g for 5 minutes at 4°C to pellet large fragments which were discarded. The supernatant was collected and centrifuged at 40,000 x g for 20 minutes at 4°C. The pellet resulting from this centrifugation was washed once in ice-cold Tris wash buffer and resuspended in a final buffer containing 50 mM Tris HCl and 0.5 mM EDTA, pH=7.4 at 23°C. Membrane preparations were kept on ice and utilized within two hours for the radioligand binding assays.
Saturation studies were conducted using [^3H]5-HT at 12 different concentrations ranging from 0.5 nM to 100 nM. […] The binding profile of drugs in competition experiments was accomplished using 10-12 concentrations of compound. Incubation times were 30 minutes for both saturation and displacement studies based upon initial investigations which determined equilibrium binding conditions. Nonspecific binding was defined in the presence of 10 µM 5-HT. Binding was initiated by the addition of 50 µL membrane homogenates (10-20 µg). The reaction was terminated by rapid filtration through presoaked (0.5% poylethyleneimine) filters using 48R Cell Brandel Harvester (Gaithersburg, MD). Subsequently, filters were washed for 5 seconds with ice cold buffer (50 mM Tris HCl, pH=7.4 at 4°C), dried and placed into vials containing 2.5 mL Readi-Safe (Beckman, Fullerton, CA) and radioactivity was measured using a Beckman LS 5000TA liquid scintillation counter. The efficiency of counting of [^3H]5-HT averaged between 45-50%. Binding data was analyzed by computer-assisted nonlinear regression analysis (Accufit and Accucomp, Lunden Software, Chagrin Falls, OH).

5-HT1Dβ = 5-HT1Dβ (Homo sapiens, UniProt P28222); assay: [3H]5-HT radioligand binding to the cloned 5-HT1Dβ receptor
5-HT1Dβ, sequence (P28222 whole entry): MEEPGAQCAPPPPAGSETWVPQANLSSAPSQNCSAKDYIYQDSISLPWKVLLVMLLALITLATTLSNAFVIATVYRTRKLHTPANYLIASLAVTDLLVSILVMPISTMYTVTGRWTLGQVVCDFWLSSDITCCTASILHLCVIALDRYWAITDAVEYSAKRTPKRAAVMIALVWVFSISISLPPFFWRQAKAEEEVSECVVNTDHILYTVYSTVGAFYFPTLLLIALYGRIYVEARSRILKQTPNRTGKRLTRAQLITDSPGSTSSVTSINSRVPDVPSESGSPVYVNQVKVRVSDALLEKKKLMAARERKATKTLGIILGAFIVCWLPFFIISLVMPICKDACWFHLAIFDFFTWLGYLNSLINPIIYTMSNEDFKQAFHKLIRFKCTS

[2] = cloned receptor, [3H]5-HT displacement, 37°C

SMILES | Ki (5-HT1E; [2]) | Inhibition of Protein Extravasation i.v. ID50 [1] | Ki (5-HT1Dα; [2]) | Ki (5-HT1F receptor; [2]) | Ki (5-HT1Dβ; [2]) | Ki (5-HT1E) | Ki (5-HT1Dα) | Ki (5-HT1F receptor) | Ki (5-HT1Dβ)
Cn1cc(CCN2CCC(c3c[nH]c4ccc(F)cc34)CC2)cn1 [Compound II, 5-fluoro-3-<1-<2-<1-methyl-1H-pyrazol-4-yl>ethyl>-4-piperidinyl>-1H-indole hydrochloride] | 50.3 nM | 8.6e-10 mmol/kg | 21.7 nM | 2.5 nM | 53.6 nM |  |  |  | 
O=C(O)C(=O)O.Oc1ccc2[nH]cc(C3CCNCC3)c2c1 [Compound III, 5-hydroxy-3-(4-piperidinyl)-1H-indole oxalate] |  | 8.9e-09 mmol/kg |  |  |  | 3.9 nM | 163 nM | 22 nM | 196 nM
CCN(CC)C1CCc2cccc(Cl)c2C1 (stereo not shown) [Compound IV, 8-chloro-2-diethylamino-1,2,3,4-tetrahydronaphthalene hydrochloride] |  |  |  |  |  | 813 nM | 13.5 nM | 129 nM | 145 nM
CN(C)C1CCc2[nH]c3ccc(O)cc3c2C1 (stereo not shown) [Compound V, 6-hydroxy-3-dimethylamino-1,2,3,4-tetrahydrocarbazole] | 73.6 nM | 8.7e-09 mmol/kg |  | 10.3 nM |  |  | 791 nM |  | 1680 nM
